Read-outs that look alike come from different tables or passages of the source.
Key:
[1] = tested on: S. aureus; assay: Serial twofold agar dilution (Mueller-Hinton agar), S. aureus; type: cell-based; details: Staphylococcus aureus
Procedure: (§1) The Minimum Inhibitory Concentrations (MIC) for sodium 6-[D-(-)-α-phenyl-α-(7-hydroxy-4-oxo-4H-pyrimido[1,2-b]pyridazin-3-ylcarboxamido)acetamido]penicillanate (BB-P598) and sulbenicillin were determined by the serial twofold agar dilution method using Steers' apparatus on Mueller-Hinton agar plates against 31 test organisms for the primary screening (Table 1) and also against 61 strains of Pseudomonas aeruginosa for the secondary evaluation (Table 2).
(§2) Minimum Inhibitory Concentrations (MIC) for sodium 6-[D-(-)-α-phenyl-α-(7-hydroxy-4-oxo-4H-pyrimido[1,2-b]pyridazin-3-ylcarboxamido)acetamido]pencillanate (BB-P598), sodium 6-[D-(-)-α-(4-hydroxyphenyl)-α-(7-hydroxy-4-oxo-4H-pyrimido[1,2-b]pyridazin-3-ylcarboxamido)acetamido]-penicillanate (BB-P642) and carbenicillin were determined by the serial twofold agar dilution method using Steers' apparatus on Mueller-Hinton agar plates against 31 tests organisms (Table 8) and also against 61 strains of Pseudomonas aeruginosa (Table 9). In terms of mean % relative activity compared with carbenicillin, compounds BB-B598 and BB-P642 were 856% and 1319% as active as carbenicillin against the 61 Pseudomonas strains of Table 9.

[2] = tested on: E. coli; assay: Serial twofold agar dilution (Mueller-Hinton agar), E. coli; type: cell-based; details: Escherichia coli
Procedure: as §1, §2

[3] = tested on: K. pneumoniae; assay: Serial twofold agar dilution (Mueller-Hinton agar), K. pneumoniae; type: cell-based; details: Klebsiella pneumoniae, K. pneumoniae A9977, Table 8, read-out: MIC
Procedure: as §1, §2

[4] = tested on: Klebsiella sp.; assay: Serial twofold agar dilution (Mueller-Hinton agar), Klebsiella sp.; type: cell-based; details: Klebsiella sp. A20452, Mueller-Hinton agar, Table 8, read-out: MIC
Procedure: as §1, §2

[5] = tested on: E. cloacae; assay: Serial twofold agar dilution (Mueller-Hinton agar), E. cloacae; type: cell-based; details: Enterobacter cloacae
Procedure: as §1, §2

[6] = tested on: P. mirabilis; assay: Serial twofold agar dilution (Mueller-Hinton agar), P. mirabilis; type: cell-based; details: Proteus mirabilis
Procedure: as §1, §2

[7] = tested on: P. vulgaris; assay: Serial twofold agar dilution (Mueller-Hinton agar), P. vulgaris; type: cell-based; details: Proteus vulgaris, P. vulgaris A9539, Table 8, read-out: MIC
Procedure: as §1, §2

[8] = tested on: P. morganii; assay: Serial twofold agar dilution (Mueller-Hinton agar), P. morganii; type: cell-based; details: Morganella morganii, P. morganii A9553, Table 8, read-out: MIC
Procedure: as §1, §2

[9] = tested on: S. enteritidis; assay: Serial twofold agar dilution (Mueller-Hinton agar), S. enteritidis; type: cell-based; details: Salmonella enterica, S. enteritidis A9531, Table 8, read-out: MIC
Procedure: as §1, §2

[10] = tested on: S. marcescens; assay: Serial twofold agar dilution (Mueller-Hinton agar), S. marcescens; type: cell-based; details: Serratia marcescens, S. marcescens A20019, Table 8
Procedure: as §1, §2

[11] = tested on: Pseudomonas aeruginosa; assay: Serial twofold agar dilution (Mueller-Hinton agar), P. aeruginosa; type: cell-based; details: for MIC: Pseudomonas aeruginosa
Procedure: as §1, §2

[12] = tested on: Pseudomonas sp.; assay: Serial twofold agar dilution (Mueller-Hinton agar), Pseudomonas sp.; type: cell-based; details: Pseudomonas sp. A20358, Table 8, read-out: MIC
Procedure: as §1, §2

[13] = Mouse blood levels after subcutaneous administration; details: in vivo, sc, 20 mg/kg
Procedure: Mouse blood levels of BB-[…] and BB-[…] were determined by subcutaneous administration of 20 mg/kg of the penicillin to groups of three mice. Blood samples collected from orbital sinuses were assayed by the paper disk agar-diffusion method on Sarcina lutea PC1 1001 plates.

CC1(C)S[C@@H]2[C@H](NC(=O)[C@H](NC(=O)c3cnc4ccc(O)nn4c3=O)c3ccc(O)cc3)C(=O)N2[C@H]1C(=O)O [BB-P642, Sodium 6-[D-(-)-α-(4-hydroxyphenyl)-α-(7-hydroxy-4-oxo-4H-pyrimido[1,2-b]pyridazin-3-ylcarboxamido)acetamido]-penicillanate]
MIC ([1]; S. aureus A15097, Table 8, read-out: MIC): > 100 µg/mL
MIC ([1]; S. aureus A20239, Table 8, read-out: MIC): 25 µg/mL
MIC ([1]; S. aureus A20240, Table 8, read-out: MIC): 12.5 µg/mL
MIC ([1]; S. aureus A20701, Table 8, read-out: MIC): > 100 µg/mL
MIC ([1]; S. aureus BX-1633 A9606, Table 8, read-out: MIC): 25 µg/mL
MIC ([1]; S. aureus Smith A9537, Table 8, read-out: MIC): 3.1 µg/mL
MIC ([2]; E. coli A9635, Table 8, read-out: MIC): 12.5 µg/mL
MIC ([2]; E. coli A9844, Table 8, read-out: MIC): 3.1 µg/mL
MIC ([2]; E. coli A20366, Table 8, read-out: MIC): > 100 µg/mL
MIC ([2]; E. coli A20520, Table 8, read-out: MIC): 6.3 µg/mL
MIC ([2]; E. coli A20664, Table 8, read-out: MIC): 1.6 µg/mL
MIC ([2]; E. coli A20732, Table 8, read-out: MIC): 100 µg/mL
MIC ([2]; E. coli A20898, Table 8, read-out: MIC): > 100 µg/mL
MIC ([2]; E. coli Juhl A15119, Table 8, read-out: MIC): 6.3 µg/mL
MIC ([2]; E. coli NIHJ, Table 8, read-out: MIC): 3.1 µg/mL
MIC [3]: 6.3 µg/mL
MIC [4]: 12.5 µg/mL
MIC ([5]; E. cloacae A9656, Table 8): 25 µg/mL
MIC ([5]; E. cloacae A9657, Table 8): 100 µg/mL
MIC ([5]; E. cloacae A9659, Table 8): 25 µg/mL
MIC [6]: 3.1 µg/mL
MIC [7]: 50 µg/mL
MIC [8]: > 100 µg/mL
MIC [9]: 3.1 µg/mL
MIC [10]: > 100 µg/mL
Mean % relative activity compared with carbenicillin ([11]; 61 strains of P. aeruginosa, Table 9): 1319%
MIC ([11]; 61 strains of P. aeruginosa, Table 9, read-out: Geometric mean of MIC): 2.27 µg/mL
MIC ([11]; A20229, Mueller-Hinton agar, Table 8, read-out: MIC): 0.4 µg/mL
MIC ([11]; ATCC19660, Pa-14 ATCC 19660 A20325, Mueller-Hinton agar, Table 9, read-out: MIC): 1.6 µg/mL
MIC ([11]; GN315, Pa-27 GN315 A21294, Mueller-Hinton agar, Table 9, read-out: MIC): 0.8 µg/mL
MIC ([11]; GN4925, Pa-45 GN 4925, Mueller-Hinton agar, Table 9, read-out: MIC): 3.1 µg/mL
MIC ([11]; P. aeruginosa A9843, Mueller-Hinton agar, Table 8, read-out: MIC): 1.6 µg/mL
MIC ([11]; P. aeruginosa A9930, Mueller-Hinton agar, Table 8, read-out: MIC): 1.6 µg/mL
MIC ([11]; P. aeruginosa A15150, Mueller-Hinton agar, Table 8, read-out: MIC): 0.8 µg/mL
MIC ([11]; P. aeruginosa A20717, Mueller-Hinton agar, Table 8, read-out: MIC): 3.1 µg/mL
MIC ([11]; Pa-2 V.A A9923, Mueller-Hinton agar, Table 9, read-out: MIC): 1.6 µg/mL
MIC ([11]; Pa-3 1449 V.A A9930, Mueller-Hinton agar, Table 9, read-out: MIC): 1.6 µg/mL
MIC ([11]; Pa-4 H9, D113 A21295, Mueller-Hinton agar, Table 9, read-out: MIC): 3.1 µg/mL
MIC ([11]; Pa-5 M4865, K.C A15150, Mueller-Hinton agar, Table 9, read-out: MIC): 1.6 µg/mL
MIC ([11]; Pa-6 No. 5 Levitan A15194, Mueller-Hinton agar, Table 9, read-out: MIC): 12.5 µg/mL
MIC ([11]; Pa-10 A21479, Mueller-Hinton agar, Table 9, read-out: MIC): > 100 µg/mL
MIC ([11]; Pa-11 A20616, Mueller-Hinton agar, Table 9, read-out: MIC): 1.6 µg/mL
MIC ([11]; Pa-12 A20653, Mueller-Hinton agar, Table 9, read-out: MIC): 1.6 µg/mL
MIC ([11]; Pa-15 A20717, Mueller-Hinton agar, Table 9, read-out: MIC): 6.3 µg/mL
MIC ([11]; Pa-16 #130 A20718, Mueller-Hinton agar, Table 9, read-out: MIC): 0.4 µg/mL
MIC ([11]; Pa-17 H6, D114, Mueller-Hinton agar, Table 9, read-out: MIC): 3.1 µg/mL
MIC ([11]; Pa-18 H8, D121, Mueller-Hinton agar, Table 9, read-out: MIC): 0.4 µg/mL
MIC ([11]; Pa-19 A20229, Mueller-Hinton agar, Table 9, read-out: MIC): 0.8 µg/mL
MIC ([11]; Pa-20 A20325, Mueller-Hinton agar, Table 9, read-out: MIC): 1.6 µg/mL
MIC ([11]; Pa-21 A20601, Mueller-Hinton agar, Table 9, read-out: MIC): 1.6 µg/mL
MIC ([11]; Pa-23 A20741, Mueller-Hinton agar, Table 9, read-out: MIC): 1.6 µg/mL
MIC ([11]; Pa-24 A20896, Mueller-Hinton agar, Table 9, read-out: MIC): > 100 µg/mL
MIC ([11]; Pa-25 A20897, Mueller-Hinton agar, Table 9, read-out: MIC): 1.6 µg/mL
MIC ([11]; Pa-26 PS32, Mueller-Hinton agar, Table 9, read-out: MIC): 12.5 µg/mL
MIC ([11]; Pa-28 C.P.H. 10527/72, Mueller-Hinton agar, Table 9, read-out: MIC): 1.6 µg/mL
MIC ([11]; Pa-29 D122, Mueller-Hinton agar, Table 9, read-out: MIC): 1.6 µg/mL
MIC ([11]; Pa-30 A20600, Mueller-Hinton agar, Table 9, read-out: MIC): 1.6 µg/mL
MIC ([11]; Pa-31 A20594, Mueller-Hinton agar, Table 9, read-out: MIC): 0.4 µg/mL
MIC ([11]; Pa-32 A20595, Mueller-Hinton agar, Table 9, read-out: MIC): 1.6 µg/mL
MIC ([11]; Pa-33 A20598, Mueller-Hinton agar, Table 9, read-out: MIC): 0.8 µg/mL
MIC ([11]; Pa-34 A20603, Mueller-Hinton agar, Table 9, read-out: MIC): 0.8 µg/mL
MIC ([11]; Pa-36, Mueller-Hinton agar, Table 9, read-out: MIC): 0.8 µg/mL
MIC ([11]; Pa-37 A20130, Mueller-Hinton agar, Table 9, read-out: MIC): 1.6 µg/mL
MIC ([11]; Pa-38 A20349, Mueller-Hinton agar, Table 9, read-out: MIC): 6.3 µg/mL
MIC ([11]; Pa-39 A20641, Mueller-Hinton agar, Table 9, read-out: MIC): 0.8 µg/mL
MIC ([11]; Pa-41 A21227, Mueller-Hinton agar, Table 9, read-out: MIC): 1.6 µg/mL
MIC ([11]; Pa-42 A21229, Mueller-Hinton agar, Table 9, read-out: MIC): 12.5 µg/mL
MIC ([11]; Pa-43 A21233, Mueller-Hinton agar, Table 9, read-out: MIC): 1.6 µg/mL
MIC ([11]; Pa-44 A21274, Mueller-Hinton agar, Table 9, read-out: MIC): 1.6 µg/mL
MIC ([11]; Pa-51 A9910, Mueller-Hinton agar, Table 9, read-out: MIC): 1.6 µg/mL
MIC ([11]; Pa-52 A9926, Mueller-Hinton agar, Table 9, read-out: MIC): 3.1 µg/mL
MIC ([11]; Pa-53 A20126, Mueller-Hinton agar, Table 9, read-out: MIC): 1.6 µg/mL
MIC ([11]; Pa-54 A20128, Mueller-Hinton agar, Table 9, read-out: MIC): 3.1 µg/mL
MIC ([11]; Pa-55 A20227, Mueller-Hinton agar, Table 9, read-out: MIC): 3.1 µg/mL
MIC ([11]; Pa-56 A20228, Mueller-Hinton agar, Table 9, read-out: MIC): 1.6 µg/mL
MIC ([11]; Pa-57 A20546, Mueller-Hinton agar, Table 9, read-out: MIC): 1.6 µg/mL
MIC ([11]; Pa-58 A20557, Mueller-Hinton agar, Table 9, read-out: MIC): 3.1 µg/mL
MIC ([11]; Pa-59 A20574, Mueller-Hinton agar, Table 9, read-out: MIC): 0.8 µg/mL
MIC ([11]; Pa-60 A20602, Mueller-Hinton agar, Table 9, read-out: MIC): 1.6 µg/mL
MIC ([11]; Pa-61 A20726, Mueller-Hinton agar, Table 9, read-out: MIC): 3.1 µg/mL
MIC ([11]; Pa-62 A21213, Mueller-Hinton agar, Table 9, read-out: MIC): > 100 µg/mL
MIC ([11]; Pa-64 A21336, Mueller-Hinton agar, Table 9, read-out: MIC): 0.8 µg/mL
MIC ([11]; Pa-65 A21428, Mueller-Hinton agar, Table 9, read-out: MIC): 1.6 µg/mL
MIC ([11]; Pa-66 A21434, Mueller-Hinton agar, Table 9, read-out: MIC): 3.1 µg/mL
MIC ([11]; Pa-67 A21509, Mueller-Hinton agar, Table 9, read-out: MIC): 3.1 µg/mL
MIC ([11]; Pa-68 A21510, Mueller-Hinton agar, Table 9, read-out: MIC): 3.1 µg/mL
MIC ([11]; Pa-69 A21587, Mueller-Hinton agar, Table 9, read-out: MIC): 3.1 µg/mL
MIC ([11]; Pa-70 K-PS102 (KR-102), Mueller-Hinton agar, Table 9, read-out: MIC): 1.6 µg/mL
MIC [12]: 0.4 µg/mL
concentration at 0.25 h [13]: 18000 ng/mL
concentration at 0.5 h [13]: 13500 ng/mL
concentration at 1 h [13]: 5200 ng/mL

From patent US4231928A, “Antibacterial agents” (priority 1979, dated 1980)
